According to patent US7820833B2, “Dithio compounds” (Marquette University, priority 2005, dated 2010):

Assay: FRET-based detection of thiols with coumarin-DAP-FITC
Conditions: 5 μM probe, Hepes pH 7.0; excitation 300 to 330 nm; no DTT
Procedure: FIG. 18. FRET-based detection of thiols: (a) R^1—S—S—R^2 probe with FRET capability (coumarin-DAP-FITC); (b) Fluorescence emission of coumarin-DAP-FITC at different excitation wavelengths; (c) Fluorescence emission of coumarin DAP-FITC after treatment with 1 mM DTT reductant (5 min) at different excitation wavelengths.
Hepes (pH 7.0) buffer was used in this study (FIG. 18) and fluorescence readings were made on a BMG Polarstar Galaxy fluorescence plate reader and/or on a Jasco FP-6500 spectrofluorometer. […] The probe (5 μM) was transferred to a 4 mL fluorescence cell and a three dimensional fluorescence spectra was recorded with excitation wavelength from 300 nm to 400 nm and emission wavelength from 400 nm to 600 nm. The coumarin chromophone has maximum excitation wavelength in the range of 310 to 325 nm and emits in the range of 400 nm to 425 nm. […] Analogues of this coumarin-DAP-FITC FRET pair can be used to tune excitation wavelengths in the range of 280 to 400 nm by placing different substitutions on the coumarin core. This includes using commercially available coumarin compounds and also coumarin compounds synthesized with functional groups like NO2, CN, NH2, COOH, CHO, alkyl, benzyl, pyridyl, naphthyl, indoles, etc at any of the synthetically feasible positions on benzyl ring of coumarin or lactone ring of coumarin. […]

SMILES: Cc1cc(=O)oc2cc(SSc3ccc(C(=S)Nc4ccc(C(=O)O)c(-c5c6ccc(=O)cc-6oc6cc(O)ccc56)c4)cc3)ccc12 [coumarin-DAP-FITC, 2-(6-Hydroxy-3-oxo-3H-xanthen-9-yl)-4-[4-(4-methyl-2-oxo-2H-chromen-7-yldisulfanyl)-thiobenzoylamino]-benzoic acid]
- fluorescence emission of intact probe: emission is only from FITC at 520 nm
